Assays:
[1] = molecular target: Beta-1 adrenergic receptor (Homo sapiens, UniProt P08588); assay: Displacement of [3H](-)-CGP-12177 from adrenergic beta1 receptor by cell based assay
[2] = Selectivity ratio of IC50 for adrenergic beta2 receptor to IC50 for adrenergic beta1 receptor
[3] = test system: Liver; assay: Drug uptake in Sprague-Dawley rat liver at 1 mCi after 30 mins by microPET analysis; type: ADME, tissue-based; conditions: in vivo, 0.5 h
[4] = test system: Heart; assay: Biodistribution in Sprague-Dawley rat heart at 15 uCi after 30 mins by gamma counting; type: ADME, organism-based; conditions: in vivo, 0.5 h
[5] = Drug uptake in Sprague-Dawley rat myocardium at 1 mCi after 60 mins by microPET analysis; type: ADME, tissue-based; conditions: in vivo, 1 h
[6] = test system: Kidney; assay: Biodistribution in Sprague-Dawley rat kidney at 15 uCi after 30 mins by gamma counting; type: ADME, organism-based; conditions: in vivo, 0.5 h
[7] = test system: Femur; assay: Biodistribution in Sprague-Dawley rat femur at 15 uCi after 30 mins by gamma counting; type: ADME, organism-based; conditions: in vivo, 0.5 h
[8] = Drug uptake in Sprague-Dawley rat myocardium at 1 mCi after 30 mins by microPET analysis; type: ADME, tissue-based; conditions: in vivo, 0.5 h
[9] = Ratio of drug level in lung to heart in Sprague-Dawley rat at 15 uCi after 30 mins by gamma counting; conditions: in vivo, 0.5 h
[10] = test system: Lung; assay: Biodistribution in Sprague-Dawley rat lung at 15 uCi after 30 mins by gamma counting; type: ADME, organism-based; conditions: in vivo, 0.5 h
[11] = test system: Muscle tissue; assay: Biodistribution in Sprague-Dawley rat muscle at 15 uCi after 30 mins by gamma counting; type: ADME, organism-based; conditions: in vivo, 0.5 h
[12] = test system: Spleen; assay: Biodistribution in Sprague-Dawley rat spleen at 15 uCi after 30 mins by gamma counting; type: ADME, organism-based; conditions: in vivo, 0.5 h
[13] = test system: Blood; assay: Biodistribution in Sprague-Dawley rat blood at 15 uCi after 30 mins by gamma counting; type: ADME, organism-based; conditions: in vivo, 0.5 h
[14] = test system: Liver; assay: Biodistribution in Sprague-Dawley rat liver at 15 uCi after 30 mins by gamma counting; type: ADME, organism-based; conditions: in vivo, 0.5 h
[15] = test system: Liver; assay: Drug uptake in Sprague-Dawley rat liver at 1 mCi after 60 mins by microPET analysis; type: ADME, tissue-based; conditions: in vivo, 1 h
[16] = test system: Rattus norvegicus; assay: Drug metabolism in rat assessed as progressive loss of parent compound at 1 mCi/kg, iv after 2 mins by HPLC analysis; type: ADME, organism-based; conditions: in vivo
[17] = Drug excretion in rat urine assessed as parent compound at 1 mCi/kg, iv after 30 mins by HPLC analysis; type: ADME, organism-based; conditions: read-out: Drug excretion
[18] = test system: Lung; assay: Drug uptake in Sprague-Dawley rat lung after <5 mins by microPET analysis; type: ADME, tissue-based; conditions: in vivo
[19] = test system: Rattus norvegicus; assay: Drug metabolism in rat assessed as progressive loss of parent compound at 1 mCi/kg, iv after 30 mins by HPLC analysis; type: ADME, organism-based; conditions: in vivo, 0.5 h
[20] = test system: Liver; assay: Drug uptake in Sprague-Dawley rat liver after <5 mins by microPET analysis; type: ADME; conditions: in vivo
[21] = Drug uptake in Sprague-Dawley rat myocardium after <5 mins by microPET analysis; type: ADME, tissue-based; conditions: in vivo

Beta-1 adrenergic receptor, sequence (P08588 whole entry): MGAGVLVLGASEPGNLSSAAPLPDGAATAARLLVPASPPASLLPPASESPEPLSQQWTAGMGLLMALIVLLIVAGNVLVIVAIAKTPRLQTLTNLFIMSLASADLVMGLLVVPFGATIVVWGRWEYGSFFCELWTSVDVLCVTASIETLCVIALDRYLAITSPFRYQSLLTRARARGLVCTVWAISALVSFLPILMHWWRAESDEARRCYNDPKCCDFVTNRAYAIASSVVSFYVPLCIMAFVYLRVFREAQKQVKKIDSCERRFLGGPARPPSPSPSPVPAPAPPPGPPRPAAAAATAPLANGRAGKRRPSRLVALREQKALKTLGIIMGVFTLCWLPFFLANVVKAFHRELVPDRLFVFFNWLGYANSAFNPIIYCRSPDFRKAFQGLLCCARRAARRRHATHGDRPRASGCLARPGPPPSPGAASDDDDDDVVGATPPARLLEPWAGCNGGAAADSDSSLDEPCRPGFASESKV

IC50 [1] | Ratio IC50 [2] | SMILES | also measured
0.04 nM | 265 | N#Cc1ccccc1OC[C@@H](O)CNCCNC(=O)Nc1cccc(OCCF)c1 | –
10 nM | 4 | N#Cc1ccccc1OC[C@@H](O)CNCCNC(=O)c1ccc(F)nc1 | –
0.25 nM | 65 | N#Cc1ccccc1OC[C@@H](O)CNCCNC(=O)Nc1ccc(OCCCF)cc1 | –
1 nM | 511 | N#Cc1ccccc1OC[C@@H](O)CNCCNC(=O)Nc1ccc(C(=O)O)c(F)c1 | –
0.1 nM | 50 | N#Cc1ccccc1OC[C@@H](O)CNCCNC(=O)Nc1ccc(OCCF)nc1 | –
2 nM | 70 | N#Cc1ccc(F)cc1OC[C@@H](O)CNCCNC(=O)Nc1ccc(C(=O)O)cc1 | –
0.05 nM | > 1000 | N#Cc1ccccc1OC[C@@H](O)CNCCNC(=O)Nc1ccc(Br)nc1 | –
26 nM | 8 | N#Cc1ccccc1OC[C@@H](O)CNCCNC(=O)Nc1nccs1 | –
5 nM | 0.1 | N#Cc1ccccc1OC[C@@H](O)CNCCNS(=O)(=O)c1ccccc1F | –
20 nM | 4 | N#Cc1ccccc1OC[C@@H](O)CNCCNC(=O)N1CCOCC1 | –
0.35 nM | 163 | N#Cc1ccccc1OC[C@@H](O)CNCCNC(=O)Nc1cnc(Br)cn1 | –
0.11 nM | 145 | COc1ccc(NC(=O)NCCNC[C@H](O)COc2ccccc2C#N)cc1 | –
– | – | N#Cc1ccccc1OC[C@@H](O)CNCCNC(=O)Nc1ccc(OCCC[18F])cc1 | Drug uptake [3]: Active; Drug uptake [4]: 0.42 % ID/g; Drug uptake [5]: Not Active; Drug uptake [6]: 1.38 % ID/g; Drug uptake [7]: 0.63 % ID/g; Drug uptake [8]: Active; Ratio [9]: 1.5; Drug uptake [10]: 0.63 % ID/g; Drug uptake [11]: 0.09 % ID/g; Drug uptake [12]: 0.4 % ID/g; Drug uptake [13]: 0.21 % ID/g; Drug uptake [14]: 1.03 % ID/g; Drug uptake [15]: Not Active
0.14 nM | 6 | N#Cc1ccccc1OC[C@@H](O)CNCCNC(=O)Cc1ccc(F)cc1 | –
2 nM | 32 | CCOc1ccc(NC(=O)NCCNC[C@H](O)COc2cccc(F)c2C#N)cc1 | –
0.1 nM | 150 | N#Cc1ccccc1OC[C@@H](O)CNCCNC(=O)Nc1ccc(F)cc1 | –
0.08 nM | 448 | N#Cc1ccccc1OC[C@@H](O)CNCCNC(=O)Nc1ccc(OCCF)cc1 | –
1.5 nM | 13 | CC(CF)Nc1ccc(NC(=O)NCCNC[C@H](O)COc2ccccc2C#N)cc1 (stereo partly drawn) | –
10 nM | 10 | N#Cc1ccccc1OC[C@@H](O)CNCCNC(=O)Nc1nnn(CCF)n1 | –
– | – | N#Cc1ccccc1OC[C@@H](O)CNCCNC(=O)Nc1ccc(OCC[18F])cc1 | Drug uptake [3]: Active; Drug uptake [4]: 0.48 % ID/g; Drug uptake [5]: Not Active; Drug uptake [6]: 1.26 % ID/g; Drug uptake [7]: 0.27 % ID/g; Drug uptake [8]: Active; Ratio [9]: 2; Drug uptake [10]: 0.97 % ID/g; Drug uptake [11]: 0.08 % ID/g; Drug uptake [12]: 0.37 % ID/g; Drug uptake [13]: 0.18 % ID/g; Drug uptake [14]: 1.14 % ID/g; Drug uptake [15]: Not Active
0.05 nM | 723 | N#Cc1ccccc1OC[C@@H](O)CNCCNC(=O)Nc1ccc(I)nc1 | –
3 nM | 30 | N#Cc1ccccc1OC[C@@H](O)CNCCCC(=O)Nc1ccc(F)nc1 | –
21 nM | 164 | N#Cc1c(F)cccc1OC[C@@H](O)CNCCNC(=O)Nc1ccc(C(=O)O)cc1 | –
0.3 nM | 345 | N#Cc1ccccc1OC[C@@H](O)CNCCNC(=O)Nc1ccc(F)nc1 | –
– | – | N#Cc1ccccc1OC[C@@H](O)CNCCNC(=O)Nc1cccc(OCC[18F])c1 | Drug uptake [3]: Active; Drug uptake [4]: 0.62 % ID/g; Drug uptake [5]: Not Active; Drug uptake [6]: 2.01 % ID/g; Drug metabolism [16]: 83%; dose excreted at 0.5 h [17]: 76%; Drug uptake [7]: 0.16 % ID/g; Drug uptake [8]: Active; Ratio [9]: 1.27; Drug uptake [18]: Active; Drug uptake [10]: 0.79 % ID/g; Drug metabolism [19]: 44%; Drug uptake [11]: 0.1 % ID/g; Drug uptake [12]: 0.52 % ID/g; Drug uptake [20]: Active; Drug uptake [13]: 0.14 % ID/g; Drug uptake [14]: 1.14 % ID/g; Drug uptake [21]: Active; Drug uptake [15]: Not Active
0.2 nM | 69 | N#Cc1ccccc1OC[C@@H](O)CNCCNC(=O)Nc1ccccc1F | –

SMILES | IC50 [1] | Ratio IC50 [2] | also measured
N#Cc1ccccc1OC[C@@H](O)CNCCNC(=O)NC1CCN(CCF)CC1 | > 100 nM | 0.05 | –

From ChEMBL document CHEMBL2010725, “Synthesis and Cardiac Imaging of (18)F-Ligands Selective for β1-Adrenoreceptors” (ACS Med Chem Lett, 2011)
